Reference: BindingDB's records for doi:10.1016/0960-894X(96)00399-X (1996)

Target: Inositol 1,4,5-trisphosphate receptor type 1 (Rattus norvegicus)
Assay: Compound was tested for inhibition of specific [3H]Ins(1,4,5)P3 binding to Inositol 1,4,5-trisphosphate receptor in rat cerebellar membranes.

IC50: 27 nM
Structure (SMILES): O=P(O)(O)OC1C(O)C(CO)C(OP(=O)(O)O)C(OP(=O)(O)O)C1O [Phosphoric acid mono-((3S,5R,6R)-3,5-dihydroxy-2-hydroxymethyl-4,6-bis-phosphonooxy-cyclohexyl) ester]
